This is an account of results in patent publication US11891397B1, “Pyrido[4′,3′:4,5]pyrrolo[3,2-c][1,7]naphthyridin-10-one compounds as CK2 inhibitors” (KING FAISAL UNIVERSITY, priority 2023, dated 2024).

Experiment [1] has as its system PC3 (prostate). The experiment can be described thus: In vitro cytotoxic activity MTT assay, PC3. As to conditions: Homo sapiens, 96 hours exposure, read-out: IC50, 50% inhibition of cell proliferation. Type of experiment: cell-based. On the procedure: (§1) Compounds 1-16 were screened for their in vitro cytotoxic activity utilizing a 3-(4,5-dimethyl-thiazol-2-yl)-2,5-diphenyltetrazolium bromide (MTT) assay against selected cancer human cell lines consisting of PC3 (prostate), HCT116 (colon), A375 (melanoma), H1299 (lung), MIAPaCa-2 (pancreas), HL60 (leukemia), MCF7 (breast), MDA-MB-231 (breast) (T. Mosmann, J. Immunol. Meth., 1983, 65, 55-63). The cells were cultured at 37° C. in RMPI1640 medium supplemented with 10% fetal bovine serum, 50 IU/mL penicillin, and 50 μg/mL streptomycin in a 5% CO2 incubator. All cells were sub-cultured 3 times/week by trypsinisation. Viable cells were seeded and allowed to adhere for 12 h before a test drug was added in 96-well plates at an initial density of 1.0×10^5 cells/mL. Tumour cell lines were separately exposed to various concentrations of the tested compounds followed by incubation at a temperature of 37° C. during 96 h inside a medium of fresh RMPI 1640. Cells were subsequently incubated at 37° C. using MTT at 0.5 mg/mL during 4 h. After removal of supernatant, formazan crystals were dissolved in isopropanol and the optical density was measured at 570 nm. CX-4945 was used as a positive control.

Experiment [2] has as its system HCT116 (colon). The experiment in a line: In vitro cytotoxic activity MTT assay, HCT116. The format is cell-based. As to conditions: Homo sapiens, HCT-116, 96 hours exposure, read-out: IC50, 50% inhibition of cell proliferation. How it is done:
as §1

Experiment [3] has as its system A375 (melanoma). The experiment in a line: In vitro cytotoxic activity MTT assay, A375. The format is cell-based. As to conditions: Homo sapiens, A-375, 96 hours exposure, read-out: IC50, 50% inhibition of cell proliferation. On the procedure:
as §1
(In general: Tetrazolium assays rely on reduction of a dye to a coloured formazan, in cell work by metabolically active cells.)

Experiment [4] concerns H1299 (lung). The experiment in a line: In vitro cytotoxic activity MTT assay, H1299. As to conditions: Homo sapiens, NCI-H1299, 96 hours exposure, read-out: IC50, 50% inhibition of cell proliferation. The format is cell-based. How it is done:
as §1

The subject of experiment [5] is MIAPaCa-2 (pancreas). The experiment can be described thus: In vitro cytotoxic activity MTT assay, MIAPaCa-2. Type of experiment: cell-based. As to conditions: Homo sapiens, MIA PaCa-2, 96 hours exposure, read-out: IC50, 50% inhibition of cell proliferation. On the procedure: as §1
Experiment [6] concerns HL60 (leukemia). The experiment can be described thus: In vitro cytotoxic activity MTT assay, HL60. Type of experiment: cell-based. As to conditions: Homo sapiens, HL-60, 96 hours exposure, read-out: IC50, 50% inhibition of cell proliferation. How it is done: as §1
Experiment [7] deals with MCF7 (breast). The experiment can be described thus: In vitro cytotoxic activity MTT assay, MCF7. The format is cell-based. As to conditions: Homo sapiens, 96 hours exposure, read-out: IC50, 50% inhibition of cell proliferation. How it is done:
as §1

In experiment [8] the test system is MDA-MB-231 (breast). The experiment in a line: In vitro cytotoxic activity MTT assay, MDA-MB-231. As to conditions: Homo sapiens, 96 hours exposure, read-out: IC50, 50% inhibition of cell proliferation. Type of experiment: cell-based. On the procedure:
as §1

Experiment [9] concerns the target T1, recombinant human CK2 (Homo sapiens, UniProt P68400).
T1 construct: purchased Millipore
The experiment in a line: CK2 Kinase Assay (33P-ATP filter plate). Type of experiment: biochemical. As to conditions: final ATP concentration 15 μM, 10 min at 30° C; read-out: protein kinase CK2 IC50. How it is done: CK2 Kinase Assay was conducted using the protocol as described in Pierre F. et al; J. Med. Chem. 2011, 54, 635-654. The tested compounds in aqueous solution were added at a volume of 10 μL to a reaction mixture comprising 10 μL of assay dilution buffer (ADB; 20 mM MOPS, pH 7.2, 25 mM β-glycerol phosphate, 5 mM EGTA, 1 mM sodium orthovanadate, and 1 mM dithiothreitol), 10 μL of substrate peptide (RRRDDDSDDD, dissolved in ADB at a concentration of 1 mM), 10 μL of recombinant human CK2 (RROP-holoenzyme, 25 ng dissolved in ADB; Millipore). Reactions were initiated by the addition of 10 μL of ATP solution (90% 75 mMMgCl2, 75 μM ATP (final ATP concentration:15 μM) dissolved in ADB; 10% [γ-33P] ATP (stock 1 mCi/100 μL; 3000 Ci/mmol (Perkin-Elmer) and maintained for 10 min at 30° C. The reactions were quenched with 100 μL of 0.75% phosphoric acid and then transferred to and filtered through a phosphor cellulose filter plate (Millipore). After washing each well five times with 0.75% phosphoric acid, the plate was dried under vacuum for 5 min and, following the addition of 15 μL of scintillation fluid to each well, the residual radioactivity was measured using a Wallac luminescence counter. The IC50 values were derived from eight concentrations of test inhibitors.

T1 sequence (P68400 whole entry): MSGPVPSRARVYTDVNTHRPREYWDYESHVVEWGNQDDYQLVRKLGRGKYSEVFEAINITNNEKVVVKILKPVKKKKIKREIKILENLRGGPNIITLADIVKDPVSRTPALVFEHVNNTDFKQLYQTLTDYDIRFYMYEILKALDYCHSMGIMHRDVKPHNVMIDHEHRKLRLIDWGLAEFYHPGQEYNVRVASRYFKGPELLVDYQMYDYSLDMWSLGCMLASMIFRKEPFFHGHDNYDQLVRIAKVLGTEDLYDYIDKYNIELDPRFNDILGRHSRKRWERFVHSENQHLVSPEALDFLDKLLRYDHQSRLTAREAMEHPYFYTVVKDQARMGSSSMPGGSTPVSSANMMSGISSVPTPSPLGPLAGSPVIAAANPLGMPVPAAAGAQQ
T1 sequence (P67870 whole entry partner): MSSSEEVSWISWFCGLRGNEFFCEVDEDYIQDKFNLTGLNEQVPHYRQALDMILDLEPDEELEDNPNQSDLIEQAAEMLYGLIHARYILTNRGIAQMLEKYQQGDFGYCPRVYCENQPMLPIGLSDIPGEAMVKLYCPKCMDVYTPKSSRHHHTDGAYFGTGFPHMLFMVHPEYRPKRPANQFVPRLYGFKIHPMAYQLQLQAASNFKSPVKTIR

Turning to `O=c1[nH]ccc2c1[nH]c1c3ccncc3nc(Nc3cccc(Cl)c3)c21` [Compound 1, 6-((3-chlorophenyl)amino)-9,11-dihydro-10H-pyrido[4′,3′:4,5]pyrrolo[3,2-c][1,7]naphthyridin-10-one], the IC50 in [1] was 1800 nM; in experiment [2], 2100 nM; in experiment [3], 3.9 µM; in experiment [4], 2700 nM; in experiment [5], 1200 nM; in experiment [6], 4.6 µM. For the same molecule, the figures for the IC50 in [7], in [8] and in experiment [9] were 5.4 µM, 4 µM and 45 nM, respectively.
